Reference: ChEMBL document CHEMBL3091356, “Salen and tetrahydrosalen derivatives act as effective inhibitors of the tumor-associated carbonic anhydrase XII--a new scaffold for designing isoform-selective inhibitors” (Bioorg Med Chem Lett, 2013)

Legend:
Carbonic anhydrase 1 = Carbonic anhydrase 1 (Homo sapiens, UniProt P00915); assay: Inhibition of human recombinant carbonic anhydrase 1-mediated CO2 hydration preincubated for 15 mins by stopped-flow assay
Carbonic anhydrase 12 = Carbonic anhydrase 12 (Homo sapiens, UniProt O43570); assay: Inhibition of human recombinant carbonic anhydrase 12-mediated CO2 hydration preincubated for 15 mins by stopped-flow assay
Carbonic anhydrase 9 = Carbonic anhydrase 9 (Homo sapiens, UniProt Q16790)
Description: Inhibition of human recombinant carbonic anhydrase 9-mediated CO2 hydration preincubated for 15 mins by stopped-flow assay

Carbonic anhydrase 2 = Carbonic anhydrase 2 (Homo sapiens, UniProt P00918); assay: Inhibition of human recombinant carbonic anhydrase 2-mediated CO2 hydration preincubated for 15 mins by stopped-flow assay

Carbonic anhydrase 12, sequence (O43570 whole entry): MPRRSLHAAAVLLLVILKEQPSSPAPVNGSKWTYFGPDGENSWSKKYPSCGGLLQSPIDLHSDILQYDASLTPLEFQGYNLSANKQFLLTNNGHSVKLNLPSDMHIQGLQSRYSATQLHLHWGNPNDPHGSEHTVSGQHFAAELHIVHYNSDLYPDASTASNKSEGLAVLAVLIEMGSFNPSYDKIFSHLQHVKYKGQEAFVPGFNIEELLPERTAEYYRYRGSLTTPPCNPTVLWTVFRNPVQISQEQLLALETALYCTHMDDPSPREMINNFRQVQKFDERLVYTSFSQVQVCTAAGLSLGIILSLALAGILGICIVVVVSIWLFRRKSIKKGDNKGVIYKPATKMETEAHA
Carbonic anhydrase 1, sequence (P00915 whole entry): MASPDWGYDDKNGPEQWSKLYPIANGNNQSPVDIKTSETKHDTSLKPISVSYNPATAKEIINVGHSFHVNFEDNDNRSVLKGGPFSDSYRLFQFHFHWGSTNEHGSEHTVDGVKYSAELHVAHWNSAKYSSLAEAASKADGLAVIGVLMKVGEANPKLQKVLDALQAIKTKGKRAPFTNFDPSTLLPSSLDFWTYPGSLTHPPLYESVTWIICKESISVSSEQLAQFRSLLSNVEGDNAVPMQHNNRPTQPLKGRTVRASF

SMILES	Ki (Carbonic anhydrase 1) [µM]	Ki (Carbonic anhydrase 12) [µM]	Ki (Carbonic anhydrase 9) [µM]	Ki (Carbonic anhydrase 2) [µM]
Oc1ccccc1/C=N/CCCCCC/N=C/c1ccccc1O	> 100	0.43	4.35	3.6
Oc1ccccc1CNCCCNCc1ccccc1O	> 100	0.04	3.37	0.39
Oc1ccccc1/C=N/c1ccccc1/N=C/c1ccccc1O	> 100	–	2.45	–
Oc1ccccc1CNCCNCc1ccccc1O	> 100	–	> 100	–
O=[N+]([O-])c1ccccc1/C=N/CCCCCC/N=C/c1ccccc1[N+](=O)[O-]	> 100	–	> 100	> 100
Oc1ccccc1CNCCCCNCc1ccccc1O	> 100	–	4.37	–
Oc1ccccc1CNCCCCCNCc1ccccc1O	> 100	–	4.19	–
Oc1ccccc1CNCCCCCCNCc1ccccc1O	> 100	–	2.51	–
Oc1ccccc1CNc1ccccc1NCc1ccccc1O	> 100	–	0.22	–
Oc1ccccc1/C=N/CCCCC/N=C/c1ccccc1O	> 100	–	4.47	–
COc1cccc(/C=N/CC/N=C/c2cccc(OC)c2O)c1O	> 100	–	> 100	> 100
Oc1ccccc1/C=N/CCC/N=C/c1ccccc1O	> 100	–	15.7	–
Oc1ccccc1/C=N/CCCC/N=C/c1ccccc1O	> 100	–	–	–
Oc1ccccc1/C=N/CC/N=C/c1ccccc1O	> 100	0.28	> 100	1.72
